Experimental data published in US20140343000A1 (priority 2011, published 2014).

system: recombinant NL4-3 virus (Renilla luciferase in nef, Gag P373S; NLRluc) in MT-2 cells; assay: whole plant or invertebrate; type: cell-based, HIV; settings: Renilla, NL43
Method in brief: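 Read-out is Renilla luciferase, measured immediately after adding a premixed lysis/Dual Luciferase reagent. The reporter virus, NL4-3 with luciferase replacing part of nef plus Gag P373S, infected MT-2 cells for 4–5 days under serially diluted inhibitor.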

For `C=C(C)[C@@H]1CC[C@]2(NCCN3CCS(=O)(=O)CC3)CC[C@]3(C)[C@H](CC[C@@H]4[C@@]5(C)CC=C(c6ccc(C(=O)NS(=O)(=O)C7CC7)cc6)C(C)(C)[C@@H]5CC[C@]43C)[C@@H]12` [Example 164, N-(cyclopropylsulfonyl)-4-((1R,3aS,5aR,5bR,7aR,11aS,11bR,13aR,13bR)-3a-((2-(1,1-dioxido-4-thiomorpholinyl)ethyl)amino)-1-isopropenyl-5a,5b,8,8,11a-pentamethyl-2,3,3a,4,5,5a,5b,6,7,7a,8,11,11a,11b,12,13,13a,13b-octadecahydro-1H-cyclopenta[a]chrysen-9-yl)benzamide], which EC50 is on record?
Its EC50 is < 0.1 µM.

same assay, conditions: Renilla, NL43, luciferase activity in cells infected for 4-5 days with NLRluc recombinants, serial dilutions of inhibitor; class symbols (key in Table 1); read-out: EC50

For `C=C(C)[C@@H]1CC[C@]2(NCC(=O)N(CC)CC)CC[C@]3(C)[C@H](CC[C@@H]4[C@@]5(C)CC=C(c6ccc(C(=O)O)cc6)C(C)(C)[C@@H]5CC[C@]43C)[C@@H]12` [Example 149, 4-((1R,3aS,5aR,5bR,7aR,11aS,11bR,13aR,13bR)-3a-(2-(diethylamino)-2-oxoethylamino)-5a,5b,8,8,11a-pentamethyl-1-(prop-1-en-2-yl)-2,3,3a,4,5,5a,5b,6,7,7a,8,11,11a,11b,12,13,13a,13b-octadecahydro-1H-cyclopenta[a]chrysen-9-yl)benzoic acid], which EC50 is on record?
Its EC50 is < 0.1 µM.

`C=C(C)[C@@H]1CC[C@]2(NCC(=O)NC(C)C)CC[C@]3(C)[C@H](CC[C@@H]4[C@@]5(C)CC=C(c6ccc(C(=O)O)cc6)C(C)(C)[C@@H]5CC[C@]43C)[C@@H]12` [Example 150, 4-((1R,3aS,5aR,5bR,7aR,11aS,11bR,13aR,13bR)-3a-(2-(isopropylamino)-2-oxoethylamino)-5a,5b,8,8,11a-pentamethyl-1-(prop-1-en-2-yl)-2,3,3a,4,5,5a,5b,6,7,7a,8,11,11a,11b,12,13,13a,13b-octadecahydro-1H-cyclopenta[a]chrysen-9-yl)benzoic acid] was tested. Which EC50 did it give?
Its EC50 is < 0.1 µM.

Which EC50 does the source give for `C=C(C)[C@@H]1CC[C@]2(NCCO)CC[C@]3(C)[C@H](CC[C@@H]4[C@@]5(C)CC=C(c6ccc(C(=O)O)cc6)C(C)(C)[C@@H]5CC[C@]43C)[C@@H]12` [Example 151, 4-((1R,3aS,5aR,5bR,7aR,11aS,11bR,13aR,13bR)-3a-(2-hydroxyethylamino)-5a,5b,8,8,11a-pentamethyl-1-(prop-1-en-2-yl)-2,3,3a,4,5,5a,5b,6,7,7a,8,11,11a,11b,12,13,13a,13b-octadecahydro-1H-cyclopenta[a]chrysen-9-yl)benzoic acid] here?
Its EC50 is < 0.1 µM.

Which EC50 does the source give for `C=C(C)[C@@H]1CC[C@]2(NCC3CC3)CC[C@]3(C)[C@H](CC[C@@H]4[C@@]5(C)CC=C(c6ccc(C(=O)O)cc6)C(C)(C)[C@@H]5CC[C@]43C)[C@@H]12` [Example 152, 4-((1R,3aS,5aR,5bR,7aR,11aS,11bR,13aR,13bR)-3a-(cyclopropylmethylamino)-5a,5b,8,8,11a-pentamethyl-1-(prop-1-en-2-yl)-2,3,3a,4,5,5a,5b,6,7,7a,8,11,11a,11b,12,13,13a,13b-octadecahydro-1H-cyclopenta[a]chrysen-9-yl)benzoic acid] here?
The EC50 was < 0.1 µM.

Which EC50 does the source give for `C=C(C)[C@@H]1CC[C@]2(NCC3CCCN(C(=O)OC(C)(C)C)C3)CC[C@]3(C)[C@H](CC[C@@H]4[C@@]5(C)CC=C(c6ccc(C(=O)O)cc6)C(C)(C)[C@@H]5CC[C@]43C)[C@@H]12` (stereo partly drawn) [Example 153, 4-((1R,3aS,5aR,5bR,7aR,11aS,11bR,13aR,13bR)-3a-((1-(tert-butoxycarbonyl)piperidin-3-yl)methylamino)-5a,5b,8,8,11a-pentamethyl-1-(prop-1-en-2-yl)-2,3,3a,4,5,5a,5b,6,7,7a,8,11,11a,11b,12,13,13a,13b-octadecahydro-1H-cyclopenta[a]chrysen-9-yl)benzoic acid] here?
The EC50 was > 0.1 µM.

For `C=C(C)[C@@H]1CC[C@]2(NCC3CCCNC3)CC[C@]3(C)[C@H](CC[C@@H]4[C@@]5(C)CC=C(c6ccc(C(=O)O)cc6)C(C)(C)[C@@H]5CC[C@]43C)[C@@H]12` (stereo partly drawn) [Example 154, 4-((1R,3aS,5aR,5bR,7aR,11aS,11bR,13aR,13bR)-5a,5b,8,8,11a-pentamethyl-3a-(piperidin-3-ylmethylamino)-1-(prop-1-en-2-yl)-2,3,3a,4,5,5a,5b,6,7,7a,8,11,11a,11b,12,13,13a,13b-octadecahydro-1H-cyclopenta[a]chrysen-9-yl)benzoic acid], which EC50 is on record?
Its EC50 is < 0.1 µM.

`C=C(C)[C@@H]1CC[C@]2(NCc3ccco3)CC[C@]3(C)[C@H](CC[C@@H]4[C@@]5(C)CC=C(c6ccc(C(=O)O)cc6)C(C)(C)[C@@H]5CC[C@]43C)[C@@H]12` [Example 155, 4-((1R,3aS,5aR,5bR,7aR,11aS,11bR,13aR,13bR)-3a-(furan-2-ylmethylamino)-5a,5b,8,8,11a-pentamethyl-1-(prop-1-en-2-yl)-2,3,3a,4,5,5a,5b,6,7,7a,8,11,11a,11b,12,13,13a,13b-octadecahydro-1H-cyclopenta[a]chrysen-9-yl)benzoic acid] was tested. Which EC50 did it give?
The EC50 was < 0.1 µM.

Which EC50 does the source give for `C=C(C)[C@@H]1CC[C@]2(NCC3CC3C(=O)O)CC[C@]3(C)[C@H](CC[C@@H]4[C@@]5(C)CC=C(c6ccc(C(=O)O)cc6)C(C)(C)[C@@H]5CC[C@]43C)[C@@H]12` (stereo partly drawn) [Example 157, 4-((1R,3aS,5aR,5bR,7aR,11aS,11bR,13aR,13bR)-3a-((2-carboxycyclopropyl)methylamino)-5a,5b,8,8,11a-pentamethyl-1-(prop-1-en-2-yl)-2,3,3a,4,5,5a,5b,6,7,7a,8,11,11a,11b,12,13,13a,13b-octadecahydro-1H-cyclopenta[a]chrysen-9-yl)benzoic acid] here?
The EC50 was < 0.1 µM.

For `C=C(C)[C@@H]1CC[C@]2(NCc3ccsc3)CC[C@]3(C)[C@H](CC[C@@H]4[C@@]5(C)CC=C(c6ccc(C(=O)O)cc6)C(C)(C)[C@@H]5CC[C@]43C)[C@@H]12` [Example 158, 4-((1R,3aS,5aR,5bR,7aR,11aS,11bR,13aR,13bR)-5a,5b,8,8,11a-pentamethyl-1-(prop-1-en-2-yl)-3a-(thiophen-3-ylmethylamino)-2,3,3a,4,5,5a,5b,6,7,7a,8,11,11a,11b,12,13,13a,13b-octadecahydro-1H-cyclopenta[a]chrysen-9-yl)benzoic acid], which EC50 is on record?
The EC50 was < 0.1 µM.

For `C=C(C)[C@@H]1CC[C@]2(NCCN3CCOCC3)CC[C@]3(C)[C@H](CC[C@@H]4[C@@]5(C)CC=C(c6ccc(C(=O)O)cc6)C(C)(C)[C@@H]5CC[C@]43C)[C@@H]12` [Example 159, 4-((1R,3aS,5aR,5bR,7aR,11aS,11bR,13aR,13bR)-5a,5b,8,8,11a-pentamethyl-3a-(2-morpholinoethylamino)-1-(prop-1-en-2-yl)-2,3,3a,4,5,5a,5b,6,7,7a,8,11,11a,11b,12,13,13a,13b-octadecahydro-1H-cyclopenta[a]chrysen-9-yl)benzoic acid], which EC50 is on record?
The EC50 was < 0.1 µM.

For `C=C(C)[C@@H]1CC[C@]2(N(CCN3CCOCC3)CCN3CCOCC3)CC[C@]3(C)[C@H](CC[C@@H]4[C@@]5(C)CC=C(c6ccc(C(=O)O)cc6)C(C)(C)[C@@H]5CC[C@]43C)[C@@H]12` [Example 160, 4-((1R,3aS,5aR,5bR,7aR,11aS,11bR,13aR,13bR)-3a-(bis(2-morpholinoethyl)amino)-5a,5b,8,8,11a-pentamethyl-1-(prop-1-en-2-yl)-2,3,3a,4,5,5a,5b,6,7,7a,8,11,11a,11b,12,13,13a,13b-octadecahydro-1H-cyclopenta[a]chrysen-9-yl)benzoic acid], which EC50 is on record?
Its EC50 is < 0.1 µM.

For `C=C(C)[C@@H]1CC[C@]2(NCc3cscn3)CC[C@]3(C)[C@H](CC[C@@H]4[C@@]5(C)CC=C(c6ccc(C(=O)O)cc6)C(C)(C)[C@@H]5CC[C@]43C)[C@@H]12` [Example 161, 4-((1R,3aS,5aR,5bR,7aR,11aS,11bR,13aR,13bR)-5a,5b,8,8,11a-pentamethyl-1-(prop-1-en-2-yl)-3a-(thiazol-4-ylmethylamino)-2,3,3a,4,5,5a,5b,6,7,7a,8,11,11a,11b,12,13,13a,13b-octadecahydro-1H-cyclopenta[a]chrysen-9-yl)benzoic acid], which EC50 is on record?
The EC50 was < 0.1 µM.

How did the EC50 turn out when `C=C(C)[C@@H]1CC[C@]2(NCc3csc(C)n3)CC[C@]3(C)[C@H](CC[C@@H]4[C@@]5(C)CC=C(c6ccc(C(=O)O)cc6)C(C)(C)[C@@H]5CC[C@]43C)[C@@H]12` [Example 162, 4-((1R,3aS,5aR,5bR,7aR,11aS,11bR,13aR,13bR)-5a,5b,8,8,11a-pentamethyl-3a-((2-methylthiazol-4-yl)methylamino)-1-(prop-1-en-2-yl)-2,3,3a,4,5,5a,5b,6,7,7a,8,11,11a,11b,12,13,13a,13b-octadecahydro-1H-cyclopenta[a]chrysen-9-yl)benzoic acid] was run?
The EC50 was < 0.1 µM.

With `CC(C)[C@@H]1CC[C@]2(NCCN3CCS(=O)(=O)CC3)CC[C@]3(C)[C@H](CC[C@@H]4[C@@]5(C)CC=C(c6ccc(C(=O)O)cc6)C(C)(C)[C@@H]5CC[C@]43C)[C@@H]12` [Example 163, 4-((1S,3aS,5aR,5bR,7aR,11aS,11bR,13aR,13bR)-3a-((2-(1,1-dioxido-4-thiomorpholinyl)ethyl)amino)-1-isopropyl-5a,5b,8,8,11a-pentamethyl-2,3,3a,4,5,5a,5b,6,7,7a,8,11,11a,11b,12,13,13a,13b-octadecahydro-1H-cyclopenta[a]chrysen-9-yl)benzoic acid] as the compound, how does the EC50 read?
The EC50 was < 0.1 µM.

same assay, conditions: Renilla, NL43, luciferase activity in cells infected for 4-5 days with NLRluc recombinants, serial dilutions of inhibitor; numeric values; read-out: EC50

Which EC50 does the source give for `C=C(C)[C@@H]1CC[C@]2(NCC(OC)OC)CC[C@]3(C)[C@H](CC[C@@H]4[C@@]5(C)CC=C(c6ccc(C(=O)O)cc6)C(C)(C)[C@@H]5CC[C@]43C)[C@@H]12` [Example 156, 4-((1R,3aS,5aR,5bR,7aR,11aS,11bR,13aR,13bR)-3a-(2,2-dimethoxyethylamino)-5a,5b,8,8,11a-pentamethyl-1-(prop-1-en-2-yl)-2,3,3a,4,5,5a,5b,6,7,7a,8,11,11a,11b,12,13,13a,13b-octadecahydro-1H-cyclopenta[a]chrysen-9-yl)benzoic acid] here?
Its EC50 is 0.12 µM.
